According to US11440903B2, “Salt form and crystal form of compound as FGFR4 inhibitor and preparation method thereof” (GUANGDONG ZHONGSHENG PHARMACEUTICAL CO., LTD, priority 2017, dated 2022):

Experiment: Stability of the crystal form on stirring as suspension in solvent (40° C., 2 days)
Type: physicochemical
Settings: stirring in methanol at 40° C. for 2 days
How it was run: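 Suspensions of compound in acetonitrile-water (1:1), ethyl acetate, methanol or ethanol stirred in the dark at 40° C. for 2 days, centrifuged, solids vacuum-dried at 30° C. overnight (room temperature for formula (II)). Some samples first dissolved under ultrasound and partly evaporated. Resulting crystal form identified by XRPD, with DSC and TGA.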

Row | stability in the methanol solution | SMILES
1 | substantially high stability | C=CC(=O)N[C@H]1COC[C@H]1Nc1ncc(/C=C(\F)c2c(Cl)c(OC)cc(OC)c2Cl)cn1 [Crystal Form B]
2 | substantially high stability | C=CC(=O)N[C@H]1COC[C@H]1Nc1ncc(/C=C(\F)c2c(Cl)c(OC)cc(OC)c2Cl)cn1.CS(=O)(=O)O [Crystal Form E]
